From patent publication US20040110802A1, “Antibacterial benzoic acid derivatives” (priority 2002, published 2004)
In brackets after ≈: the same amount, converted by molar mass.

Each molecule was assayed on SAUR 9218 (assay: MIC Test Method, standard agar dilution). Details: agar dilution, Mueller Hinton agar, incubated overnight at 35° C.; lowest concentration that inhibits visible growth.
Type: cell-based
Protocol: The in vitro MiCs of test compounds were determined by a standard agar dilution method. A stock drug solution of each analog was prepared in the preferred solvent, usually DMSO:H2O (1:3). Serial 2-fold dilutions of each sample are made using 1.0 ml aliquots of sterile distil]ed water. To each 1.0 ml aliquot of drug was added 9 ml of molten Mueller Hinton agar medium. The drug-supplemented agar was mixed, poured into 15×100 mm petri dishes, and allowed to solidify and dry prior to inoculation.
Vials of each of the test organisms are maintained frozen in the vapor phase of a liquid nitrogen freezer. Test cultures are grown overnight at 35° C. on the medium appropriate for the organism. Colonies are harvested with a sterile swab, and cell suspensions are prepared in Trypticase Soy broth (TSB) to equal the turbidity of a 0.5 McFamland standard. A 1:20 dilution of each suspension was made in TSB. The plates containing the drug supplemented agar are inoculated with a 0.001 ml drop of the cell suspension using a Steers replicator, yielding approximately 10^4 to 10^5 cells per spot. The plates are incubated overnight at 35° C.
Following incubation the Minimum Inhibitory Concentration (MIC μg/ml), the lowest concentration of drug that inhibits visible growth of the organism, was read and recorded.

Row | SAUR 9218 MIC | Compound
1 | 32 µg/mL | Cc1sc(C(=O)Nc2ccc(C#N)cc2C(=O)O)cc1S(=O)(=O)N(C)C(C)C(O)c1ccccc1 (centres unmarked) [drawing 953]

Same assay, conditions: agar dilution, Mueller Hinton agar, incubated overnight at 35° C.; lowest concentration that inhibits visible growth; read-out: SAUR 9218 MIC

Row | MIC | Compound
2 | 16 µg/mL (≈ 52.2 µM) | N#Cc1ccc(NC(=O)c2n[nH]c3ccccc23)c(C(=O)O)c1
3 | 1 µg/mL (≈ 2.86 µM) | N#Cc1ccc(NC(=O)c2ncc(-c3ccccc3)s2)c(C(=O)O)c1
4 | 8 µg/mL (≈ 21.5 µM) | CC1=C(C(=O)Nc2ccc(Br)cc2C(=O)O)Cc2ccccc21
5 | 1 µg/mL (≈ 2.32 µM) | N#Cc1ccc(NC(=O)c2cc3cccc(NC(=O)CC4CCCC4)c3[nH]2)c(C(=O)O)c1
6 | > 128 µg/mL | CCCCc1ccc(C(=O)Nc2ccc(Br)cc2C(=O)O)nc1
7 | 8 µg/mL (≈ 10.8 µM) | Cn1c(C(=O)Nc2ccc(C#N)cc2C(=O)O)cc2c(-c3ccccc3C(F)(F)F)cc(-c3ccccc3C(F)(F)F)c(NC(=O)Cc3ccccc3)c21
8 | 0.03 µg/mL (≈ 0.0531 µM) | CC(=O)Nc1ccc(-c2cc3onc(C(=O)Nc4ccc(C#N)cc4C(=O)O)c3cc2NC(C)=O)c(C(F)(F)F)c1
9 | 64 µg/mL (≈ 165 µM) | O=C(Nc1ccc(Br)cc1C(=O)O)c1ccc(Br)o1
10 | 64 µg/mL (≈ 160 µM) | O=C(Nc1ccc(Br)cc1C(=O)O)c1cccc(Br)n1
11 | > 128 µg/mL | CS(=O)(=O)c1ccc(-c2cnc(C(=O)Nc3ccc(C#N)cc3C(=O)O)cn2)cc1
12 | 1 µg/mL (≈ 3.25 µM) | N#Cc1ccc(NC(=O)c2onc3ccccc23)c(C(=O)O)c1
13 | 0.5 µg/mL (≈ 1.43 µM) | COc1ccc2cc(C(=O)Nc3ccc(C#N)cc3C(=O)O)n(C)c2c1
14 | 0.125 µg/mL (≈ 0.305 µM) | Cc1ccccc1-c1cccc2cc(C(=O)Nc3ccc(C#N)cc3C(=O)O)n(C)c12
15 | 0.5 µg/mL (≈ 1.07 µM) | CN(C(=O)Nc1ccc2cc(C(=O)Nc3ccc(C#N)cc3C(=O)O)n(C)c2c1)c1ccccc1
16 | 0.25 µg/mL (≈ 0.494 µM) | N#Cc1ccc(NC(=O)c2cc3cccc(NC(=O)Cc4cccc(C(F)(F)F)c4)c3[nH]2)c(C(=O)O)c1
17 | 8 µg/mL (≈ 14.5 µM) | Cc1sc(C(=O)Nc2ccc(Br)cc2C(=O)O)cc1S(=O)(=O)Nc1ccc2c(c1)OCCO2
18 | 4 µg/mL (≈ 9.88 µM) | O=C(O)c1cc(Cl)ccc1NC(=O)c1cc2ccccc2n1Cc1ccccc1
19 | 0.125 µg/mL (≈ 0.326 µM) | N#Cc1ccc(NC(=O)c2ccc(SC3CCOCC3)nc2)c(C(=O)O)c1
20 | 0.5 µg/mL (≈ 1.1 µM) | N#Cc1ccc(NC(=O)c2noc3ccc(S(=O)(=O)N4CCOCC4)cc23)c(C(=O)O)c1

Row | MIC | Compound
21 | 64 µg/mL (≈ 164 µM) | N#Cc1ccc(NC(=O)c2cncc(SCc3ccccc3)n2)c(C(=O)O)c1
22 | 0.125 µg/mL (≈ 0.301 µM) | Cn1c(C(=O)Nc2ccc(C#N)cc2C(=O)O)cc2cccc(OCc3ccco3)c21
23 | 0.125 µg/mL (≈ 0.281 µM) | O=C(Nc1ccc(Br)cc1C(=O)O)c1cnc(SCc2ccccc2)cn1
24 | 0.5 µg/mL (≈ 1.18 µM) | CC(=O)c1ccccc1-c1ccc2onc(C(=O)Nc3ccc(C#N)cc3C(=O)O)c2c1
25 | 2 µg/mL (≈ 5.05 µM) | N#Cc1ccc(NC(=O)c2noc3ccc(NCC(O)CO)cc23)c(C(=O)O)c1 (centres unmarked)
26 | 32 µg/mL (≈ 55.3 µM) | Cc1sc(C(=O)Nc2ccc(C#N)cc2C(=O)O)cc1S(=O)(=O)N1CCN(c2cccc(C(F)(F)F)c2)CC1
27 | 4 µg/mL (≈ 14.7 µM) | Cc1cc(C(=O)Nc2ccc(C#N)cc2C(=O)O)no1
28 | 0.5 µg/mL (≈ 0.813 µM) | Cn1c(C(=O)Nc2ccc(C#N)cc2C(=O)O)cc2ccc(N(S(=O)(=O)c3ccccc3)S(=O)(=O)c3ccccc3)cc21
29 | 2 µg/mL (≈ 3.28 µM) | Cn1c(C(=O)Nc2ccc(C#N)cc2C(=O)O)cc2c(Br)cc(Br)c(NC(=O)Cc3ccccc3)c21
30 | 2 µg/mL (≈ 3.4 µM) | Cn1c(C(=O)Nc2ccc(C#N)cc2C(=O)O)cc2cccc(NC(=O)c3cccc(S(=O)(=O)N4CCOCC4)c3)c21
31 | 0.5 µg/mL (≈ 1.18 µM) | COCC(O)COc1cccc2cc(C(=O)Nc3ccc(C#N)cc3C(=O)O)n(C)c12 (centres unmarked)
32 | 1 µg/mL (≈ 2.35 µM) | N#Cc1ccc(NC(=O)c2noc3ccc(NC(=O)c4ccccc4)cc23)c(C(=O)O)c1
33 | 0.125 µg/mL (≈ 0.321 µM) | Cn1c(C(=O)Nc2ccc(C#N)cc2C(=O)O)cc2cccc(OCC3CC3)c21
34 | 8 µg/mL (≈ 23.2 µM) | N#Cc1ccc(NC(=O)c2cc(CCC(O)CO)on2)c(C(=O)O)c1 (centres unmarked)
35 | 2 µg/mL (≈ 5.38 µM) | N#Cc1ccc(NC(=O)c2ccc(SCCCCO)nc2)c(C(=O)O)c1
36 | 0.5 µg/mL (≈ 1.12 µM) | N#Cc1ccc(NC(=O)c2noc3c2CN(C(=O)OCc2ccccc2)CC3)c(C(=O)O)c1
37 | 2 µg/mL (≈ 4.47 µM) | N#Cc1ccc(NC(=O)c2cc(-c3ccccc3OCC3CCCCO3)on2)c(C(=O)O)c1 (centres unmarked)
38 | 0.5 µg/mL (≈ 1.11 µM) | N#Cc1ccc(NC(=O)c2cc3cccc(NC(=O)CCc4ccccc4)c3[nH]2)c(C(=O)O)c1
